# Data published in PMC9605072, “Guanidine Derivatives of Quinazoline-2,4(1H,3H)-Dione as NHE-1 Inhibitors and Anti-Inflammatory Agents” (Life, 2022).
# Entries after “also recorded” stand apart in the source; their conditions may differ.
# How the values were obtained:
# [1] = tested on: rabbit platelets; assay: ADP-induced platelet aggregation assay; type: cell-based; details: Oryctolagus cuniculus, m ± SD, n = 5
# Experimental: Platelet aggregation was assessed on a two-channel laser analyzer “BIOLA-220 LA” (Russia) as described previously using rabbit platelets.
# [2] = tested on: LPS-stimulated C57bl/6j peritoneal macrophages; assay: LPS-induced nitric oxide synthesis in primary peritoneal macrophages (Griess); type: cell-based, mice; details: Mus musculus, Peritoneal macrophage, LPS 100 ng/mL, 22 h incubation, n = 3; for IC50: read-out: NO Synthesis IC50 ± SE
# Experimental: (§1) Primary C57bl/6j murine macrophages were elicited with intraperitoneal injection of 3% peptone solution as per the standard procedure. Stimulation of inflammatory response was performed with E. coli O127:B8 LPS (100 ng/mL final concentration).
# (§2) Nitric oxide was determined in culture supernatants as a nitrite anion with a standard Griess reagent after 22 h of incubation with test compounds at a wavelength of 550 nm with a microplate reader Infinite M200 PRO (Tecan GmbH, Grodig, Austria). Concentrations of IL-6 and TNF- α in cell supernatants were quantified with commercial ELISA kits according to the manufacturer’s instructions (Cloud-clone Corp., Katy, TX, USA).
# (§3) Given our primary focus on the development of agents against cytokine-mediated tissue damage, we evaluated the target compounds as inhibitors of pro-inflammatory macrophage activation. Primary peritoneal macrophages were isolated from C57bl/6j mice, pooled, and stimulated with E. coli LPS as TLR4 agonist. Pro-inflammatory activation was assessed as nitric oxide (NO) synthesis and interleukin-6 (IL-6) secretion. The cytotoxicity of the compounds was monitored in parallel using the lactate dehydrogenase assay.
# [3] = Cytotoxicity, lactate dehydrogenase (LDH) assay; type: cell-based, mice; details: C57bl/6j, mouse, primary peritoneal macrophages stimulated with E. coli LPS; LPS-stimulated macrophages; n = 3; read-out: LDH CC50 ± SE
# Experimental: (§4) The activity of lactate dehydrogenase (LDH) in a cell culture medium was determined as reported by us previously with a microplate reader Infinite M200 PRO (Tecan, Austria).
# as §3
# (§5) In an attempt to identify safer alternatives to steroid anti-inflammatory agents, it is mandatory to evaluate lead compounds for immunodepressant activity. To do so, we determined the influence of compound 4a on macrophage phagocytosis after 72 h of incubation. Cell viability was monitored in parallel via the LDH assay.
# [4] = molecular target: T1, rabbit platelet NHE-1 (Oryctolagus cuniculus, UniProt P23791); assay: NHE-1 inhibition assay (rabbit platelets, laser aggregometer); type: cell-based; details: for inhibition at 0.01 µM: 10 nM, m ± SD, n = 6
# T1 construct: endogenous in cells; host or cells: rabbit platelets
# Experimental: Inhibition of rabbit platelet NHE-1 was determined according to the method of [8, 9] in our modification, which was reported by us previously using the laser aggregometer BIOLA-220 LA (Russia).
# Target compounds were evaluated as inhibitors of rabbit platelet NHE-1 (Table 1). It was shown that the substitution of H^5 with bromine decreased the activity of compounds 3b and 4b, indicating possible steric limitations of the binding site.
# [5] = tested on: rat intraocular pressure; assay: Intraocular pressure study (TonoVet); type: in vivo; details: rats, 0.4% eye drops; for Max IOP Reduction: m ± SD, n = 5; for IOP-lowering activity reduction relative to 4a: vs 4a
# Experimental: Intraocular pressure was measured on 75 adult outbred rats of both sexes with a TonoVet device (Finland) as reported by us previously.
# To access the influence on rat eye aqueous humor formation, the studied compounds were administered as 0.4% eye drops. […] Introduction of 5-bromine (4b) or acyclic guanidine N^1 , N^3 -side chains (3a) led to 2- and 3-fold activity reduction, respectively.
# [6] = tested on: male ICR mice; assay: Tail suspension test (antidepressant activity); type: in vivo; details: mean ± SD, n = 6, vehicle 264.8 ± 11.6 s
# Experimental: Antidepressant activity was determined on 36 male ICR mice weighing 22–25 g as described in [14] using the Panlab LE808 apparatus.
# The tail suspension test was used to assess the antidepressant activity of the most-active NHE-1 inhibitors.
# [7] = tested on: LPS-stimulated C57bl/6j peritoneal macrophages; assay: LPS-induced IL-6 secretion in primary peritoneal macrophages (ELISA); type: cell-based, mice; details: Mus musculus, Peritoneal macrophage; LPS 100 ng/mL; n = 3; read-out: IL-6 Secretion IC50 ± SE
# Experimental: as §1, §2, §3
# [8] = tested on: C57bl/6j mice; assay: LPS-induced acute lung injury model; type: in vivo; details: for Motor activity, open field test: 2 and 22 h after LPS
# Experimental: Prior to the experiment, C57BL/6J mice were randomized according to body weight and motor activity in an open field test. […] Animals of the control group were injected with an equal volume of the vehicle. Animals were anesthetized with isoflurane inhalation until the breathing rate decreased 1 h later. Mice were suspended by the front incisors on an inclined surgical table; the tongue was pulled out with narrow curved tweezers, and 1 mg/mL of E. coli O127:B8 LPS (Sigma-Aldrich, Israel) in 1 mL/kg sterile saline was injected into the back of the oropharynx to allow aspiration. Intact animals received an equal volume of sterile saline in a similar way.
# The open field test was performed with the NPO “Open Science” (Russia) arena of 44 cm diameter and 32 cm wall height under 300 lux lighting as reported by us previously.
# Mice were anesthetized with 500 mg/kg chloral hydrate (Sigma-Aldrich, Germany) intraperitoneally 24 h after LPS administration. Blood and bronchoalveolar lavage (BAL) sampling was performed as described in [13]. Leukocyte counts and the lung permeability index were determined as described by us previously.
# Histological and immunohistological assessment of tissue sections was performed in a semi-quantitative way on paraffin sections after hematoxylin and eosin staining with a light microscope (Zeiss, Germany) with double-blinding. The degree of inflammation was determined as previously reported.
# Lung injury was assessed 24 h later based on behavioral, biochemical, cytological, and morphological alterations.
# [9] = tested on: C57bl/6j peritoneal macrophages; assay: Cytotoxicity, lactate dehydrogenase (LDH) assay; type: cell-based, mice; details: 72 h of incubation, in parallel to phagocytosis
# Experimental: as §4, §3, §5
# [10] = tested on: C57bl/6j peritoneal macrophages; assay: Macrophage phagocytosis assay; type: cell-based, mice; details: for Macrophage spreading (visually scored): yeast-treated macrophages, 72 h
# Experimental: The phagocytic activity of peritoneal macrophages was assessed after staining with Azur-Eosin with Romanovsky’s modifications as reported by us previously with a light microscopy using a Mikmed-6 (LOMO, Saint Petersburg, Russia) equipped with a digital camera.
# as §5
# (Figure 3). The mean number of phagocytosed particles per cell was […]. […] Macrophage spreading was registered and visually scored as a phenotypic marker of cell activation phagocytic capacity.
# [11] = 4a 50 mg/kg (30 mg/kg in source) i.p.
# [12] = 4a 50 mg/kg (30 mg/kg in source) i.p., 24 h after LPS
# [13] = dexamethasone 5 mg/kg i.p., 24 h after LPS
# T1 sequence (P23791 whole entry): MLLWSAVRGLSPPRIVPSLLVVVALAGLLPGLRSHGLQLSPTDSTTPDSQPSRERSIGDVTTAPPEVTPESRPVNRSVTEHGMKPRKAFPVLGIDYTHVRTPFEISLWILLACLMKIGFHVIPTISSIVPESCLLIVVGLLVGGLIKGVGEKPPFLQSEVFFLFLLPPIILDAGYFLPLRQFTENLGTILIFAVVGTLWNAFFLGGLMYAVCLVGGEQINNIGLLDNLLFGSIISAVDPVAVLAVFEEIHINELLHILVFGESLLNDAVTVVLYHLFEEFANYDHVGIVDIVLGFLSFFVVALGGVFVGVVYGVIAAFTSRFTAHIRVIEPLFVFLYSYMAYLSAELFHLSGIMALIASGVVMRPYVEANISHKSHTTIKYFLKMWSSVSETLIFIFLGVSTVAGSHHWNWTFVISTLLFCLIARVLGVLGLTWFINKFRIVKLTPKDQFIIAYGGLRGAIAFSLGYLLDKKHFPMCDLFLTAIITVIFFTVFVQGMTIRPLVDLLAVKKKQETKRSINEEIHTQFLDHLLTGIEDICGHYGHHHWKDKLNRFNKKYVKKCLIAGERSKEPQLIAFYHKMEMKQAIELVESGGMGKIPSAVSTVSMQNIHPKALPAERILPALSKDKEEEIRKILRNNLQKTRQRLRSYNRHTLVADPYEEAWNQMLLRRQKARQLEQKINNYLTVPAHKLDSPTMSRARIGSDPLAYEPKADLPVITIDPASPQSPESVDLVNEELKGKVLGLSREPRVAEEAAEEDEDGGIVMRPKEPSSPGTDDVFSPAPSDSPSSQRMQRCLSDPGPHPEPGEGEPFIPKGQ
Structure (SMILES),IC50 [2],inhibition at 0.01 µM ([4]; rabbit platelets),melting point,IC50 [7],inhibition at 100 µM [1],CC50 [3],Max IOP Reduction [5],further results
"CC(=O)Oc1ccccc1C(=O)O [Acetylsalicylic acid, acetylsalicylic acid, reference compound]",,,,,31.6 ± 4.6%,,,
"N=C(N)NC(=O)c1nc(Cl)c(N)nc1N [Amiloride, amiloride, reference compound]",0.62 ± 0.05 µM,5.39 ± 1.82%,,,67.6 ± 1%,> 100 µM,18.39 ± 14.58%,IC50 ([4]; rabbit platelets): 1.23 µM; Immobilization Time ([6]; 2.6 mg/kg): 172.7 ± 8.54 s
"CN(C)CCC=C1c2ccccc2CCc2ccccc21 [Amitriptyline, amitriptyline]",,,,,,,,Immobilization Time ([6]; 10 mg/kg): 50.2 ± 12.71 s
"C[C@@H]1C[C@H]2[C@@H]3CCC4=CC(=O)C=C[C@]4(C)[C@@]3(F)[C@@H](O)C[C@]2(C)[C@@]1(O)C(=O)CO [Dexamethasone, dexamethasone, reference compound]",0.003 ± 0.001 µM,,,0.003 ± 0.001 µM,,> 100 µM,,"Exploratory activity, open field test ([8]; dexamethasone 5 mg/kg i.p.): comparably improved exploratory activity; Motor activity, open field test ([8]; dexamethasone 5 mg/kg i.p.): reduced the LPS-induced motor and behavioral alterations; CD68+ macrophage accumulation in lung tissue (immunostaining) [8, 13]: significantly reduced this phenomenon; Plasma IL-6 [8, 13]: significantly reduced plasma IL-6; Segmented neutrophils in BAL [8, 13]: significantly ameliorated the accumulation of segmented neutrophils; Cell viability (LDH assay) [9]: did not influence cell viability; Mean number of phagocytosed particles per cell ([10]; 72 h of incubation): 59%; Phagocytic activity ([10]; 72 h of incubation): 41 % from control; Macrophage spreading (visually scored) [10]: more evident"
"CN(C)CCCN1c2ccccc2CCc2ccccc21 [Imipramine, imipramine]",,,,,,,,Immobilization Time ([6]; 8 mg/kg): 112.5 ± 20.56 s
"N=C(N)NC(=O)c1cnn(-c2cccc3ncccc23)c1C1CC1 [Zoniporide, zoniporide, reference compound]",,,,> 100 µM,,407 ± 27.6 µM,,"EC50 ([2]; printed as EC50 in the IC50 column, read-out: NO Synthesis EC50 ± SE): 15.6 µM"

# The next lines start with results.
IC50 [2],inhibition at 0.01 µM ([4]; rabbit platelets),melting point,IC50 [7],Structure (SMILES),inhibition at 100 µM [1],CC50 [3],Max IOP Reduction [5],further results
> 100 µM,37.2 ± 5.97%,336 to 338 °C,> 100 µM,"N=C(N)NC(=O)Cn1c(=O)c2ccccc2n(CC(=O)NC(=N)N)c1=O [Compound 3a, 2,2’-(2,4-Dioxoquinazoline-1,3(2H,4H)-diyl)bis(N-carbamimidoylacetamide)]",44.3 ± 14.3%,> 100 µM,10.08 ± 5.8%,NHE-1 IC50 ([4]; rabbit platelets): nanomolar range; IOP-lowering activity reduction relative to 4a [5]: 3 fold
> 100 µM,10.2 ± 3.72%,> 400 °C,> 100 µM,"N=C(N)NC(=O)Cn1c(=O)c2cc(Br)ccc2n(CC(=O)NC(=N)N)c1=O [Compound 3b, 2,2’-(6-Bromo-2,4-dioxoquinazoline-1,3(2H,4H)-diyl)bis(N-carbamimidoylacetamide)]",46.4 ± 9.2%,> 100 µM,24.17 ± 5.05%,
73 ± 7.83 µM,29.4 ± 4.4%,314 to 318 °C,51.8 ± 1.65 µM,"Nc1nnc(Cn2c(=O)c3ccccc3n(Cc3nnc(N)[nH]3)c2=O)[nH]1 [Compound 4a, 1,3-Bis[(5-amino-4H-1,2,4-triazol-3-yl)methyl]quinazoline-2,4(1H,3H)-dione]",39.3 ± 11.9%,> 100 µM,28.25 ± 7.92%,"Exploratory activity, open field test [8, 11]: comparably improved exploratory activity; Motor activity, open field test [8, 11]: restored the motor activity of animals; CD68+ macrophage accumulation in lung tissue (immunostaining) [8, 12]: effectively limited LPS-induced inflammation; Lung tissue histology (hematoxylin and eosin) [8, 12]: reduced LPS-induced inflammation in mouse lung tissue; Plasma IL-6 [8, 12]: significantly reduced plasma IL-6; Pulmonary (alveolar) vessel permeability [8, 12]: preserved pulmonary vessels’ permeability; Segmented neutrophils in BAL [8, 12]: significantly ameliorated the accumulation of segmented neutrophils; also recorded: most pronounced inhibition of the neutrophil migration; Cell viability (LDH assay) [9]: slightly decreased; IC50 ([4]; rabbit platelets): 0.324 µM; NHE-1 potency relative to amiloride ([4]; ratio of IC50 vs amiloride): exceeding amiloride by four times; Decrease of the mean number of phagocytosed particles ([10]; 72 h of incubation): 23%; Phagocytic activity ([10]; 72 h of incubation): insignificantly influenced; Macrophage spreading (visually scored) [10]: marginally reduced spreading; Immobilization Time ([6]; 4.0 mg/kg): 164.4 ± 23.19 s"
71 ± 4.89 µM,16.2 ± 3.75%,> 400 °C,64.8 ± 4.31 µM,"Nc1nnc(Cn2c(=O)c3cc(Br)ccc3n(Cc3nnc(N)[nH]3)c2=O)[nH]1 [Compound 4b, 1,3-Bis[(5-amino-4H-1,2,4-triazol-3-yl)methyl]-6-bromoquinazoline-2,4(1H,3H)-dione]",47.4 ± 8.9%,> 100 µM,15.45 ± 9.39%,IOP-lowering activity reduction relative to 4a [5]: 2 fold; Immobilization Time ([6]; 4.9 mg/kg): 168.2 ± 19.52 s
